Source: patent US20030185792A1, “Morphogen analogs of bone morphogenic proteins” (Curis, Inc., priority 1996, published 2003)
Entries after “also recorded” stand apart in the source; their conditions may differ.

Key:
[1] = test system: OP-1 receptor-enriched plasma membrane fraction of ROS cells; test: Radioligand receptor assay: displacement of 125I-labeled OP-1 from ROS cell plasma membranes; type: binding, rat
Procedure: In a second series of experiments, the ability of unlabeled soluble OP-1 and unlabeled peptides F1-2, F2-2, F2-3, H-n2 and H-c2 to displace ^125I labeled soluble OP-1 from ROS cell membranes was measured. The activities of peptides F2-2 and F2-3 relative to soluble OP-1 are shown in FIG. 10A, and the activities of peptides Fi-2, H-n2 and H-c2 relative to soluble OP-1 are shown in FIG. 10B. OP-1 receptor-enriched plasma membranes of ROS cells were incubated for 20 hrs at 4° C. with ^125I-labeled soluble OP-1 and unlabeled peptide. Receptor bound material was separated from unbound material by centrifugation at 39,500×g. The resulting pellet was harvested and washed with 50 mM HEPES buffer, pH 7.4 containing 5 mM MgCl2 and 1 mM CaCl2 Radioactivity remaining in the pellet was determined by means of a gamma counter.
(§1) Assay of peptides: The receptor-binding activities of OP-1 synthetic peptides were determined by a radio-ligand receptor assay using ^125I-labeled OP-1 as ligand, and an OP-1 receptor-enriched plasma membrane fraction of ROS cells. The assay is based on competition between radiolabeled OP-1 and unlabeled OP-1 or peptide for binding to membrane-bound receptor. A well characterized ROS cell based in vitro bio-assay was used to examine the effects of OP-1 peptides on basal as well as OP-1 induced cellular alkaline phosphatase activity.
i. Radio-receptor Assay: The receptor-binding activities of various OP-1 synthetic peptides can be determined by an equilibrium displacement binding isotherm assay using ^125I-labeled OP-1 as ligand and OP-1 receptor-enriched plasma membrane fraction of ROS cells. Highly purified OP-1 can be radioiodinated to a specific activity of 70-78 μCi/ug by a modified procedure of lactoperoxidase method. The percent bindability of radioiodinated OP-1 to excess receptor is 30-37%. Plasma membranes enriched with OP-1 receptors from ROS cells can be isolated as is known in the art. […] In a typical assay, fixed amounts of ^125I-labeled sol. OP-1 (˜80,000 cpm) are incubated with fixed amount of receptor-enriched plasma membrane fraction in the presence (5 μg, for non-specific binding) or absence of excess unlabeled OP-1 (for total binding). Displacement curves are generated with increasing concentrations of OP-1 peptide (0.032-50 μM) or OP-1 standard preparation (5-2000 ng). The assay incubations are carried out in a reaction volume of 300 μl with shaking for 22 hrs. at 4° C. Separation of bound and free ^125I-labeled OP-1 is by centrifugation (39,500×g, 30 minutes). The supernatants are aspirated and pellets are washed before counting in a gamma counter (Packard Instr., Downers Grove, Ill.). The concentration of OP-1 peptide required to give 50% inhibition of total specific binding of ^125I-labeled OP-1 (ED50) is calculated from competitive data.

ROS cells = test: ROS cell based alkaline phosphatase bioassay; set-up: species or system rat; conditions: for % increase in OP-1 response relative to the absence of peptide: OP-1 1.33 nM
Procedure: In a first series of experiments, increasing concentrations of peptides F2-2 (FIG. 9A), F2-3 (FIG. 9B), Hn-2 (FIG. 9C) and Hc-2 (FIG. 9D) were added to ROS cells either alone (open bars) or in combination with 40 ng/ml soluble OP-1 (filled bars) and their effect on alkaline phosphatase activity measured. Soluble OP-1 is the form of OP-1 in which the pro-domain is still attached to the mature portion of OP-1 (see WO 94/03600). A basal alkaline phosphatase activity is shown by the line and represents the alkaline phosphatase activity of cells incubated in the absence of both soluble OP-1 and peptide.
as §1
i. ROS Cell Based Alkaline Phosphatase Assay: OP-1 synthetic peptides that bind OP-1 receptors are further analyzed by in vitro bioassay. This allows defining the role of OP-1 peptides at the receptor-binding site. Some of the OP-1 peptides that effectively interact with receptors could inhibit OP-1 induced target cell responsiveness, thereby acting as functional antagonists. Alternatively, they may mimic OP-1 functions inducing alkaline phosphatase activity in ROS cells. Creative BioMolecules has developed and fully validated ROS cell in vitro assay for OP-1. An assay procedure as described earlier is essentially followed to determine the biological activities of OP-1 peptides. In a typical experiment, rat Osteosarcoma (17/2.8) cells are plated in 96 well plates (3.0×10^4 cells/well) and incubated overnight at 37° C. in 5-6% CO2 incubator. Next day, the plates are examined to make sure that cells are healthy & confluent. Cells are treated with increasing concentrations of OP-1 standard (1-10,000 ng/ml) or OP-1 synthetic peptides (0.02-200 μM) alone or with OP-1 standard prepared in medium containing 1% FBS and incubated for 2 days at 37° C. in 5-6% CO2 incubator. The cellular content of alkaline phosphatase activity is determined by the method of Reddi and Huggins. Enzyme estimations are routinely carried out in 96 well plates. Following removal of culture medium, cells are washed with pre-warmed PBS (150 μl) and further incubated in 100 ul of pre-warmed 1% Triton X-100 for 30 minutes at 37 C. Plates are centrifuged for 10 minutes at full speed, and recovered samples (each 15 μl) are assayed for enzyme activity by adding 90 ul p-nitrophenyl phosphate (Sigma) as a substrate in 0.05 M glycine-NaOH buffer, pH 9.3 and incubating for 20 minutes at 37° C. The reaction is stopped by adding 75 μl of 0.2 N NaOH/well and absorbance at 405/490 nm is measured on a Dynatech MR 700 plate reader. Results are expressed as concentration of peptide inhibitor (with antagonist activity) required to give 50% inhibition of maximum response to OP-1 standard. On the other hand, the activities of peptides that stimulate cell responsiveness (with agonist activity) are expressed relative to OP-1 standard. FIG. 23 illustrates the dose-related effects of OP-1 preparations on stimulation of alkaline phosphatase activity as determined in ROS cell based in vitro assay.

F2-3: SEQ ID No. 19; 16 residues, finger 2 tip 11-residue loop with 5-residue C-terminal extension (CYFDDSSNVICKKYRS; listed as Homo sapiens)
ability to displace 125I-labeled soluble OP-1 from ROS cell membranes ([1]; Example 2, FIGS. 10A and 10B): able to completely displace | effect on binding of 125I-labeled OP-1 to the receptor ([1]; Example 3): effectively competed | behaviour in the alkaline phosphatase assay (agonist/antagonist) (ROS cells; Example 2, alone or with 40 ng/ml soluble OP-1): weak OP-1 agonists | effect on basal cell responsiveness (alkaline phosphatase activity) (ROS cells; Example 3, peptide alone, no OP-1): no significant effect | effect on OP-1 induced cell responsiveness (agonist/antagonist behaviour) (ROS cells; Example 3, peptide together with OP-1): agonistic manner; also recorded: potentiating the cell responsiveness to OP-1 | peptide concentrations at which OP-1 induced responsiveness is potentiated (ROS cells; Example 3, with OP-1): 0.01 to 1 µM | overall judgement of activity (lead peptides) (ROS cells; Example 3 summary, antagonistic (H-C2) and modulating (F2-3) activity): highly active | % increase in OP-1 response relative to the absence of peptide (ROS cells; peptide 0.01 (unit printed ELM), FIG. 19): 53% | % increase in OP-1 response relative to the absence of peptide (ROS cells; peptide 0.1 (unit printed ELM), FIG. 19): 54% | % increase in OP-1 response relative to the absence of peptide (ROS cells; peptide 1 ELM (so in the source), FIG. 19): 48% | increase of alkaline phosphatase activity relative to soluble OP-1 alone (ROS cells; peptide about 0.01 μM with 40 ng/ml soluble OP-1, FIG. 9B): about 20% | effect on basal alkaline phosphatase level (ROS cells; peptide alone, about 0.01 μM, Example 2, FIG. 9B): increase the basal alkaline phosphatase level

B1: OP-1: osteogenic protein-1, a tissue morphogenic protein of the TGF-β superfamily; mature human OP-1 is SEQ ID No. 4 (protein, listed as Homo sapiens)
chain: CKKHELYVSFRDLGWQDWIIAPEGYAAYYCEGECAFPLNSYMNATNHAIVQTLVHFINPETVPKPCCAPTQLNAISVLYFDDSSNVILKKYRNMVVRACGCH
affinity (Ka) of OP-1 binding sites ([1]; single class of binding sites in ROS cell plasma membrane preparations): 4.38e+09 M⁻¹ | level of OP-1 response in the absence of peptide (ROS cells; FIG. 19, sub-maximal OP-1 (1.33 nM)): approximately 60 % of maximum
